# Where two headings read alike, the source gives them in different places.
# Assays:
# IRAK-1 = target: T1, IRAK-1 (Homo sapiens, UniProt P51617); assay: Enzymatic inhibition assay, IRAK-1 kinase activity (chemiluminescent ELISA); type: biochemical
# T1 construct: Recombinant, full-length IRAK-1 or IRAK-4 enzyme (baculovirus expression system) was added; Flag (N); made in house
# Procedure: Enzymatic inhibition assay.
# (§1) 96-well polystyrene microtiter plates were coated with neutravidin for IRAK-1 or streptavidin for IRAK-4 ([…] in PBS, overnight at 4° C.). The coating solution was removed and in 80 μL/well a kinase reaction mixture was added (for IRAK-1: 20 mM Tris-HCl, pH 7.5, 10 mM MgCl2, 2 mM EGTA, 1 mM NaF, 0.5 mM benzamidine, 1 mM DTT, 3 μM ATP, […] of biotinylated substrate peptide bio-[…], sequence derived from IRAK-1; for IRAK-4: 20 mM Tris-HCl, pH 7.5, 10 mM MgCl2, 2 mM EGTA, 1 mM NaF, 0.5 mM benzamidine, 1 mM DTT, 10% glycerol, 10 μM ATP, […] of biotinylated substrate peptide bio-[…], sequence derived from GFAP).
# (§2) At 10 μL/well in DMSO test compounds were added covering a final concentration range from 1 nM to […]. Recombinant, full-length IRAK-1 or IRAK-4 enzyme (baculovirus expression system) was added in 10 μL buffer containing Tris-HCl pH 7.5 20 mM, EGTA 2 mM, benzamidine 0.5 mM, DTT 1 mM, MgCl2 10 mM and glycerol 10% (IRAK-4 only) to initiate the kinase reaction. The reaction mixture was incubated at room temperature for 60 min on a shaker. During this incubation the substrate peptide is being phosphorylated by the kinase and gets captured onto the surface of the wells by neutravidin or streptavidin, respectively. The plate was washed 3× with 150 μL distilled water to terminate the reaction and remove components of the reaction mixture. A conventional chemiluminescent ELISA detection technique was initiated by adding 100 μL/well primary antibody (monoclonal antibody YC10, generated to recognize the phosphorylated epitope in the substrate peptide; used at 1:20,000 dilution for IRAK-1 and 1:10,000 dilution for IRAK-4) premixed with horseradish peroxidase (HRP) conjugated anti-mouse secondary antibody (commercially available from several sources; used at 1:10,000 dilution) in PBS containing 2% BSA. The solution was incubated at room temperature for 40 min on a shaker, then washed 3× with 150 μL of water. 100 μL/well 10× diluted SuperSignal HRP substrate (from Pierce) was added and after 5 min incubation the chemiluminescent signal was captured by a Labsystems LuminoSkan luminometer.
# IRAK-4 = target: T2, IRAK-4 (Homo sapiens, UniProt Q9NWZ3); assay: Enzymatic inhibition assay, IRAK-4 kinase activity (chemiluminescent ELISA); type: biochemical
# T2 construct: Recombinant, full-length IRAK-1 or IRAK-4 enzyme (baculovirus expression system) was added; His (N); made in house
# T2 sequence (Q9NWZ3 1-460): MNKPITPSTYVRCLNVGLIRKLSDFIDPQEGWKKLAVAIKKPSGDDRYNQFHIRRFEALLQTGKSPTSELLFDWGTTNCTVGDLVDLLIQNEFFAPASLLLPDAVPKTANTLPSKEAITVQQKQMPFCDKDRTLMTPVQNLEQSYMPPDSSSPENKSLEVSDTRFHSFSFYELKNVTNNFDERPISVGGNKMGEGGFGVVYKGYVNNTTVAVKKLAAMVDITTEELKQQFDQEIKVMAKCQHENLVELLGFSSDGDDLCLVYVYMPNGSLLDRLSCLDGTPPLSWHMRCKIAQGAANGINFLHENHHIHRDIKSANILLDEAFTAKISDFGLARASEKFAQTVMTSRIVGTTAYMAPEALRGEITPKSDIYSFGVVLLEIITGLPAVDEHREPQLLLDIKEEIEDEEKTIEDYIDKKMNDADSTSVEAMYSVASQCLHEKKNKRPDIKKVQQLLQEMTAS
# Procedure: Enzymatic inhibition assay. This example provides a method that is useful for evaluating test compounds for inhibition of IRAK-1 or IRAK-4 kinase activity.
# as §1
# as §2, with “luminometer. The point of 50% inhibition of IRAK-1 or IRAK-4 enzyme activity (IC50) was determined (see Table 1).” for “luminometer.”
# [1] = recombinant full-length IRAK-4, 10 μM ATP, 60 min room temperature, read-out: IC50 values (μM) IRAK-4
# [2] = recombinant full-length IRAK-1, 3 μM ATP, 60 min room temperature, read-out: IC50 values (μM) IRAK-1
# T1 sequence (P51617 whole entry): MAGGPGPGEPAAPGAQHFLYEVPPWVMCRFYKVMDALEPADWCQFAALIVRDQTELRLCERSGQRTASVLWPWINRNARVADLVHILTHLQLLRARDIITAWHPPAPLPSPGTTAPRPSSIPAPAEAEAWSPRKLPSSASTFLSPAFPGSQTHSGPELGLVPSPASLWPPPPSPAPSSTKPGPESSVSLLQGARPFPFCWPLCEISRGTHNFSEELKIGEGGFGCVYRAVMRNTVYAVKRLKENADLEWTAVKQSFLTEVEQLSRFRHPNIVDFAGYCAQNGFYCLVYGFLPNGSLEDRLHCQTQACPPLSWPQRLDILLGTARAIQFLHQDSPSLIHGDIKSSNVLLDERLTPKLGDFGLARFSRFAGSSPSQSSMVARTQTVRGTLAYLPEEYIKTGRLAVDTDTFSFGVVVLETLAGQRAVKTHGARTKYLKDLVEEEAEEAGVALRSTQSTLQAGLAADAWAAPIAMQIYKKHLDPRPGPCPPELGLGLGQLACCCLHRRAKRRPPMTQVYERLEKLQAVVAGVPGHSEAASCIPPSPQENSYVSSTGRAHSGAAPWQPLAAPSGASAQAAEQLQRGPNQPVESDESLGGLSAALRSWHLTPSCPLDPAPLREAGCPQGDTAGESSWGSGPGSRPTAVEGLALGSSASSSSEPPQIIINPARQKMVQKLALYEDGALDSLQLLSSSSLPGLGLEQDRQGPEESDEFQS
SMILES,IC50 (IRAK-1) [µM],IC50 (IRAK-4; [1]) [µM],IC50 (IRAK-1; [2]) [µM],IC50 (IRAK-4) [µM]
"CCOC(=O)Cn1c(NC(=O)c2cccc([N+](=O)[O-])c2)nc2cc(F)c(F)cc21 [Compound 6, 3-nitro-N-(1-(ethylacet-2-yl)-5,6-difluoro-1H-benzoimidazol-2-yl)-benzamide]",10 to 30,< 10,–,–
O=[N+]([O-])c1cccc(CNc2nc3ccccc3[nH]2)c1 [Compound 17],–,10 to 30,10 to 30,–
"O=C(Nc1nc2ccccc2[nH]1)c1cccc([N+](=O)[O-])c1 [Compound 1, 3-nitro-N-(1H-benzoimidazol-2-yl)-benzamide]",–,–,< 10,< 10
"CS(=O)(=O)c1cccc(C(=O)Nc2nc3ccccc3n2CCN2CCOCC2)c1 [Compound 12, 3-methanesulfonyl-N-(1-(2-morpholin-4-yl-ethyl)-1H-benzoimidazol-2-yl)-benzamide]",< 10,< 10,–,–
"Cc1cc2nc(NC(=O)c3cccc([N+](=O)[O-])c3)[nH]c2cc1C [Compound 2, 3-nitro-N-(5,6-dimethyl-1H-benzoimidazol-2-yl)-benzamide]",–,–,10 to 30,< 10
"O=C(Nc1nc2cc(F)ccc2n1[C@H]1CC[C@H](O)CC1)c1cccc([N+](=O)[O-])c1 [Compound 16, 3-nitro-N-(1-(trans-4-cyclohexanol-1-yl)-5-fluoro-1H-benzoimidazol-2-yl)-benzamide]",–,< 10,< 10,–
"O=C(Nc1nc2cc(F)c(F)cc2n1CCN1CCOCC1)c1cccc([N+](=O)[O-])c1 [Compound 4, 3-nitro-N-(1-(2-morpholin-4-yl-ethyl)-5,6-difluoro-1H-benzoimidazol-2-yl)-benzamide]",< 10,< 10,–,–
"COC(=O)CCCn1c(NC(=O)c2cccc([N+](=O)[O-])c2)nc2ccccc21 [Compound 5, 3-nitro-N-(1-(3-carboxymethylpropyl)-1H-benzoimidazol-2-yl)-benzamide]",< 10,< 10,–,–
"O=C(Nc1nc2ccccc2n1CCN1CCOCC1)c1ccc([N+](=O)[O-])o1 [Compound 13, 5-nitro-N-(1-(2-morpholin-4-yl-ethyl)-1H-benzoimidazol-2-yl)-2-furamide]",< 10,< 10,–,–
"COC(=O)c1ccc2c(c1)nc(NC(=O)c1cccc([N+](=O)[O-])c1)n2CCO [Compound 7a, 3-nitro-N-(1-hydroxyethyl-5-carboxymethyl-1H-benzoimidazol-2-yl)-benzamide]",< 10,< 10,–,–
"COC(=O)c1cccc(C(=O)Nc2nc3ccccc3n2CCN2CCOCC2)c1 [Compound 11, 3-carboxymethyl-N-(1-(2-morpholin-4-yl-ethyl)-1H-benzoimidazol-2-yl)-benzamide]",< 10,< 10,–,–
"CC(C)(C)C(=O)Oc1ccc2c(c1)nc(NC(=O)c1cccc([N+](=O)[O-])c1)n2CCCO [Compound 15a, 3-nitro-N-(1-hydroxypropyl-5-(2′,2′-dimethylpropionyl)-1H-benzoimidazol-2-yl)-benzamide]",–,–,–,< 10
"CCn1c(NC(=O)c2ccc(OC)cc2)nc2ccccc21 [Compound 8, 4-methoxy-N-(1-ethyl-1H-benzoimidazol-2-yl)-benzamide]",10 to 30,10 to 30,–,–
"O=C(Nc1nc2ccccc2n1CCN1CCOCC1)c1cccs1 [Compound 14, N-(1-(2-morpholin-4-yl-ethyl)-1H-benzoimidazol-2-yl)-2-thiophenecarboxamide]",10 to 30,10 to 30,–,–
"O=C(Nc1nc2ccccc2n1CCN1CCOCC1)c1cccc([N+](=O)[O-])c1 [Compound 3, 3-nitro-N-(1-(2-morpholin-4-yl-ethyl)-1H-benzoimidazol-2-yl)-benzamide]",–,–,< 10,< 10
"O=C(Nc1nc2ccccc2n1CCO)c1ccc(Cl)c(Cl)c1 [Compound 10, 3,4-dichloro-N-(1-hydroxyethyl-1H-benzoimidazol-2-yl)-benzamide]",10 to 30,< 10,–,–
"O=C(Nc1nc2ccccc2n1CCO)c1cccc(Cl)c1 [Compound 9, 3-chloro-N-(1-hydroxyethyl-1H-benzoimidazol-2-yl)-benzamide]",< 10,< 10,–,–
